Tested on: vascular permeability
Assay: Suppression of increased vascular permeability (λ-carrageenin, dye leakage) in guinea pigs
Type: in vivo, Hartley strain albino guinea pigs
Settings: oral, 2.0 mg/kg; for Suppression rate: *p < 0.05
Description: The hair on the back of Hartley strain albino guinea pigs (male; weighing 235 to 270 g; in groups of 7 animals) was removed with an electric hair clipper and an electric razor, circles, 2.5 cm in diameter (4.91 cm^2 in area), were drawn symmetrically on both sides of the medium line, and 50 mg of each test external preparation was applied to the area of each circle. Three hours after application, 0.1 ml of 0.1% λ-carrageeninsolution was injected intradermally into the center of each circle, followed by injection of 0.5 ml/100 g of body weight of 0.5% Pontamine sky blue solution into the vein of the penis. Three hours after injection, each animal was sacrificed by decapitation, exsanguinated and flayed, and the area of dye leakage (major axis x minor axis) on the inner side of the skin was measured with slide calipers.
The external preparations used were preparations (A), (D), (E) and (H) containing of 0.1%, 0.25%, 0.5% and 1% of clidanac, respectively, and preparations (f), (g), (h) and (i) containing 0.1%, 0.25%, 0.5% and 1% of indomethacin, respectively. In the control group, any preparation was not administered but massage alone was performed.
For further comparison, oral preparations respectively containing clidanac and indomethacin were prepared by the procedure of Reference Example 4 and orally administered in a clidanac dose of 2 mg/kg and in an indomethacin dose of 2 mg/kg, respectively, and the animals were treated in the same manner as mentioned above.
The rate of suppression was calculated using the follwoing formula: [formula] where C is the area of dye leakage for the control group and T is the area of dye leakage for the drug-treated group.

| Structure (SMILES) | Area of dye leakage [mm^2] | Suppression rate [%] |
| --- | --- | --- |
| O=C(O)C1CCc2cc(C3CCCCC3)c(Cl)cc21 (stereo not shown) [Clidanac, 6-chloro-5-cyclohexylindane-1-carboxylic acid] | 193.8 ± 12.1 | 17.4 |
| COc1ccc2c(c1)c(CC(=O)O)c(C)n2C(=O)c1ccc(Cl)cc1 [Indomethacin] | 195.7 ± 13.6 | 16.6 |
